Test results reported in publication PMC4176390 (Journal of Natural Products, 2014).

Experiments:
brevenal binding site [1] = test: Fluorescent-ligand competition; parameters: species or system rat; conditions: for displacement of BODIPY FL-brevenal from synaptosomes (in words): BODIPY FL-brevenal 10 nM, competitors 1 pM to 10 μM
[2] = test system: voltage-sensitive sodium channels (VSSCs); conditions: cited from earlier work
fish = conditions: cited from earlier work
brevenal binding site [3] = test: Radioligand; conditions: read-out: Ki: radioligand assay; [3H]-brevenol, rat brain synaptosomes, mean ± SEM
sheep = conditions: cited from earlier work
VSSCs = conditions: cited from earlier work

## PbTx-9
Brevenal binding site [1]
  displacement of BODIPY FL-brevenal from synaptosomes (in words): None of the naturally occurring PbTx analogues were able to displace

## CC1(C)[C@H](C(=O)O[C@H](C#N)c2cccc(Oc3ccccc3)c2)[C@@H]1C=C(Br)Br [deltamethrin]
Brevenal binding site [1]
  displacement of BODIPY FL-brevenal from synaptosomes (in words): none of these ligands were able to displace

## C=C/C=C\CC[C@H]1O[C@H]2CC[C@@]3(C)O[C@H]4[C@@H](O)C[C@@]5(C)O[C@@H](CC/C=C(C)/C(C)=C/C=O)[C@@H](C)C[C@H]5O[C@@H]4C[C@@H]3O[C@@H]2CC[C@@]1(C)O [brevenal]
Brevenal binding site [1]
  displacement of BODIPY FL-brevenal from synaptosomes (in words): competed for binding to synaptosomes
Brevenal binding site [1]; read-out: Ki: fluorescent-ligand assay, BODIPY FL-brevenal 10 nM as ligand, rat brain synaptosomes, mean ± SEM
  Ki: 170 ± 31 nM
[2]
  displacement of tritiated PbTx from synaptosomes: competitively displace
fish
  toxicity to fish: nontoxic at micromolar concentrations
Brevenal binding site [3]
  Ki: 149 ± 30 nM
sheep
  mucociliary transport in sheep: increases mucociliary transport
VSSCs
  effect on VSSCs in patch-clamp experiments: does not appear to have any effect

## COc1ccc(C(=O)O[C@H]2CC[C@@]3(C)[C@@H]4CC[C@H]5[C@]6(O)C[C@H](O)[C@@]7(O)[C@@H](CN8C[C@@H](C)CC[C@H]8[C@@]7(C)O)[C@]6(O)C[C@@]53O[C@]24O)cc1OC [veratridine]
Brevenal binding site [1]
  displacement of BODIPY FL-brevenal from synaptosomes (in words): none of these ligands were able to displace

## CCN1C[C@]2(COC)[C@H](O)C[C@H](OC)[C@@]34[C@@H]5C[C@@]6(O)[C@H](OC(=O)c7ccccc7)[C@@H]5[C@@](OC(C)=O)([C@@H]([C@H](OC)[C@H]23)[C@@H]14)[C@@H](O)[C@@H]6OC [aconitine]
Brevenal binding site [1]
  displacement of BODIPY FL-brevenal from synaptosomes (in words): none of these ligands were able to displace
